In PubChem BioAssay (NCI):
“And” between values parts separate entries of the source, which are not always exact repeats. Equal values may be shown once.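 Exposure lasted 48 hours, with cells grown in 96-well plates and compounds tested at five concentrations. GI50: concentration for 50% inhibition of growth. TGI is the concentration that stops growth completely.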

Key:
Assay in all cases: NCI-60 cell line screen, 48 h
NCI-H460 lung = tested on: NCI-H460 lung
UACC-257 melanoma = tested on: UACC-257 melanoma
SK-MEL-5 melanoma = tested on: SK-MEL-5 melanoma
HCC-2998 colon = tested on: HCC-2998 colon
A549 NSCLC = tested on: A549 NSCLC
HOP-62 NSCLC = tested on: HOP-62 NSCLC
A498 renal = tested on: A498 renal
HOP-92 NSCLC = tested on: HOP-92 NSCLC
COLO 205 colon = tested on: COLO 205 colon
RXF 393 renal = tested on: RXF 393 renal
MDA-N = tested on: MDA-N

Row | Structure (SMILES) | TGI (NCI-H460 lung) [µM] | TGI (UACC-257 melanoma) [µM] | TGI (SK-MEL-5 melanoma) | TGI (HCC-2998 colon) [µM] | TGI (A549 NSCLC) [µM] | TGI (HOP-62 NSCLC) [µM] | TGI (A498 renal) | TGI (HOP-92 NSCLC) [µM] | TGI (COLO 205 colon) [µM] | TGI (RXF 393 renal) [µM] | TGI (MDA-N) [µM] | GI50 (UACC-257 melanoma) [µM] | GI50 (SK-MEL-5 melanoma) [µM] | GI50 (HCC-2998 colon) [µM] | GI50 (A549 NSCLC) [µM] | GI50 (HOP-62 NSCLC) [µM] | GI50 (RXF 393 renal) [µM] | GI50 (A498 renal) [µM] | GI50 (HOP-92 NSCLC) [µM]
1 | CCOC(=O)/C=C/c1ccccn1 | > 100 | > 100 | > 100 µM | > 100 | > 100 | > 100 | > 100 µM | > 100 | > 100 | – | – | – | – | – | – | – | – | – | –
2 | O=C(CSc1nnc(-c2ccc(N=Cc3ccc(Cl)cc3)cc2)o1)Nc1cccc(Cl)c1 | > 100 | > 100 | > 100 µM | – | > 100 | > 100 | – | – | > 100 | > 100 | – | – | – | – | – | – | – | – | –
3 | CC(=O)NC(CCCCNC(=O)N(C)N=O)C(=O)NCc1ccccc1 (stereo not given) | > 100 | > 100 | > 100 µM | > 100 | > 100 | > 100 | > 100 µM | > 100 | > 100 | > 100 | – | – | – | – | – | – | – | – | –
4 | COC(=O)C1CCC(=O)N1C(c1ccc2c(c1)OCO2)c1ccc2c(c1)OCO2 (stereo not given) | > 100 | > 100 | > 100 µM | > 100 | > 100 | > 100 | > 100 µM | > 100 | > 100 | – | > 100 | – | – | – | – | – | – | – | –
5 | CN(C)/C=N/c1nc2ncn(CCOC(=O)c3ccccc3)c2c(=O)[nH]1 | > 100 | > 100 | > 100 µM | – | > 100 | > 100 | > 100 µM | > 100 | > 100 | > 100 | – | – | – | – | – | – | – | – | –
6 | S=C(Nc1ccccc1)N1N=C2c3ccccc3CC[C@H]2[C@@H]1c1ccccc1 | > 100 | > 100 | – | > 100 | > 100 | > 100 | > 100 µM | – | – | > 100 | – | – | – | – | – | – | – | – | –
7 | CCCCCCCC/C=C/CCCCCCCC1CC(O)C(=O)O1 (stereo not given) | > 100 | > 100 | > 100 µM | > 100 | > 100 | > 100 | > 100 µM | 90.9 | > 100 | – | > 100 | – | – | – | – | – | – | – | –
8 | COc1cc([C@@H]2c3cc4c(c(O)c3C[C@H]3COC(=O)[C@@H]32)OCO4)cc(OC)c1O | – | > 20 | 0.00624 µM and < 0.02 µM | 2 | > 200 | > 200 | 0.0046 µM and < 0.02 µM | 0.113 | 0.174 | – | – | 0.005 | 0.00221 | 0.0283 | 0.00385 | 0.00487 | 0.00215 | 0.00144 | 0.00576
9 | CC(C)(C)NC1C2CCC(C)(C1O)C2(C)C (stereo not given) | > 100 | > 100 | > 100 µM | > 100 | > 100 | > 100 | 5.19 µM | – | > 100 | > 100 | – | – | – | – | – | – | – | – | –
10 | CN1OC2OC(=O)OC2[C@H]1[C@H]1O[C@H](c2ccccc2)OC1(C)c1cc(OC(=O)c2ccccc2)ccc1OC(=O)c1ccccc1 (stereo not given in full) | > 50 | > 50 | > 50 µM | – | > 50 | > 50 | – | > 50 | > 50 | > 50 | – | – | – | – | – | – | – | – | –
11 | NC(CCCCNC(=O)C(Cc1ccccc1)NC(=O)OCc1ccccc1)C(=O)NC(CCCCNC(=O)C(Cc1ccccc1)NC(=O)OCc1ccccc1)C(=O)NC(CCCCNC(=O)C(Cc1ccccc1)NC(=O)OCc1ccccc1)C(=O)NC(CCCCNC(=O)C(Cc1ccccc1)NC(=O)OCc1ccccc1)C(=O)NC(CCCCNC(=O)C(Cc1ccccc1)NC(=O)OCc1ccccc1)C(=O)NC(CCCCNC(=O)C(Cc1ccccc1)NC(=O)OCc1ccccc1)C(=O)O (stereo not given) | > 100 | > 100 | > 100 µM | > 100 | > 100 | > 100 | – | – | – | – | > 100 | – | – | – | – | – | – | – | –
12 | CSc1ccc2c(cc1=O)[C@@H](NC(=O)c1ccc(F)cc1)CCc1cc(O)c(O)c(O)c1-2 | > 100 | > 100 | > 100 µM | > 100 | > 100 | > 100 | > 100 µM | > 100 | > 100 | > 100 | – | – | – | – | – | – | – | – | –
13 | COc1ccc(C#CCC(OC2OC(CO)C(O)C(O)C2O)C(O)c2ccc(OC)c(OC)c2)cc1OC (stereo not given) | > 100 | > 100 | > 100 µM | > 100 | > 100 | > 100 | > 100 µM | – | > 100 | > 100 | – | – | – | – | – | – | – | – | –
14 | CP(C)(=S)P(C)(C)=S | > 100 | > 100 | > 100 µM | > 100 | > 100 | > 100 | – | – | > 100 | > 100 | > 100 | – | – | – | – | – | – | – | –
15 | COc1ccc([C@@H]2CC(=O)NCCCCNCCCN2)cc1 | > 100 | > 100 | > 100 µM | – | > 100 | > 100 | > 100 µM | > 100 | > 100 | > 100 | – | – | – | – | – | – | – | – | –
16 | CCOC(=O)C1(Cc2ccccc2)Cc2ccccc2C1=O (stereo not given) | > 100 | – | 28.8 µM | > 100 | > 100 | > 100 | – | 56 | 37.7 | – | 44.6 | – | – | – | – | – | – | – | –
17 | CC1=NN(C(=O)Cc2ccccc2)C(=O)/C1=C\c1ccco1 | – | > 100 | > 100 µM | > 100 | > 100 | > 100 | – | – | > 100 | – | – | – | – | – | – | – | – | – | –
18 | Cc1ccc(C)c(NC(=O)C(Cc2c[nH]c3ccccc23)NC(=O)OCc2ccccc2)c1 (stereo not given) | 44 | 34.3 | 34.5 µM | – | 26.1 | > 100 | > 100 µM | 57.5 | 46.1 | 22 | > 100 | – | – | – | – | – | – | – | –
19 | N#Cc1c2nc3ccccc3nc2n2ccc3ccccc3c12 | > 100 | > 100 | > 100 µM | > 100 | > 100 | – | – | > 100 | > 100 | – | – | – | – | – | – | – | – | – | –
20 | CC[C@]12C=CCN3CCC4(c5cc([C@@]6(C(=O)OC)CC7CN(CCc8c6[nH]c6ccccc86)C[C@@H]6CCC[C@H]76)c(OC)cc5N(C)C4[C@](O)(C(=O)OC)C1OC(C)=O)C32 (stereo not given in full) | > 4.71 | > 10 | 0.181 µM | > 6.75 | > 10 | 1.31 | 0.816 µM | > 10 | 0.375 | 0.554 | – | – | – | – | – | – | – | – | –
21 | COc1cccc(-n2c(N)c(-c3nc4cc(C(F)(F)F)ccc4s3)c3ccc([N+](=O)[O-])cc3c2=O)c1 | > 100 | > 100 | > 100 µM | > 100 | > 100 | > 100 | > 100 µM | > 100 | > 100 | – | > 100 | – | – | – | – | – | – | – | –
22 | N#CC(c1cc(Cl)ncn1)c1nc2ccccc2s1 (stereo not given) | > 100 | 32.2 | 33.1 µM | – | > 100 | 43.8 | 68.6 µM | 11.1 | 57.6 | 42.5 | 24.1 | – | – | – | – | – | – | – | –
